Results published in patent US4444773A, “Substituted thiazolo[3,2-a]pyrimidines and process for their preparation” (Farmitalia Carlo Erba S.p.A., priority 1981, dated 1984).

Columns and labels:
[1] = acute toxicity (LD50) in the mouse; settings: in vivo, po, per os, single administration of increasing doses, measured on the seventh day, read-out: approximate acute toxicity (LD50)
Description: In view of their high therapeutic index, the compounds of the invention can be used safely in medicine. For example, the approximate acute toxicity (LD50) of the compounds 7-trans-[2-(3-pyridyl)-ethenyl]-5H-thiazolo[3,2-a]pyrimidine-5-one and 2-chloro-7-trans-[2-(3-pyridyl)-ethenyl]-5H-thiazolo[3,2-a]pyrimidine-5-one in the mouse determined by single administration of increasing doses and measured on the seventh day of treatment, is higher than 800 mg/kg per os. Analogous toxicity data have been found for other compounds of the invention.

[2] = test system: phenylquinone induced writhing; experiment: phenylquinone induced writhing test (Siegmund); format: in vivo, mice; settings: Mus musculus; approximate ED25; printed 'in the rat', after oral administration; read-out: analgesic activity ED25, phenylquinone-induced writhing test
Text: (§1) A. Winter et al. (J. Pharmac. Exp. Therap. 1963, 141, 369) and P. Lence (Arch. Int. Pharmacodyn., 1962, 136, 237), and (B) the Reversed Passive Arthus Reaction (RPAR) in rat paw, induced by the interaction of antigen and antibody resulting in the formation of precipitating immune complex, followed by fixation of complement and accumulation of polymorphonuclear leucocytes at a focal point (D. K. GEMMELL, J. COTTNEY and A. J. LEWIS, Agents and Actions 9/1 pag. 107, 1979). The compounds of this invention are also endowed with analgesic activity. The analgesic activity was assessed, for example, by means of phenylquinone induced writhing test in mice according to Siegmund [Siegmund et al. Proc. Soc. Exper. Biol. Med., 95, 729 (1957)].
With regard to the analgesic activity, one of the preferred compounds of this invention is, for example, the compound 2-chloro-7-trans-[2-(3-pyridyl)-ethenyl]-5H-thiazolo[3,2-a]pyrimidine-5-one, wich has an approximate ED25 value of 25 mg/kg in the phenylquinone-induced writhing test in the rat, after oral administration. Furthermore the compounds of this invention are effective in the inhibiting the TXA2 synthetase in vivo and may be therefore useful in therapy, for example, in the prevention and treatment of all kinds of thrombosis, peripheral vasculopaties and coronary artery diseases.

[3] = test system: restraint ulcers in rats; experiment: inhibition of restraint ulcers in rats (Bonfils method); format: in vivo; settings: po; approximate ED50; rat, per os one hour before immobilization, lesions counted 4 hours after immobilization; read-out: Antiulcerogenic activity p.o. ED50
Text: The compounds of the present invention are active on the gastroenteric system, in particular they are endowed with anti-ulcerogenic and gastric anti-secretory activity and are therefore useful in therapy, for example in the prevention and treatment of peptic, e.g. duodenal, gastric and esophageal, ulcers and to inhibit gastric acid secretion. The compounds of the invention are also useful for reducing the undesiderable gastrointestinal side-effects resulting from systemic administration of anti-inflammatory prostaglandin synthetase inhibitors and may be, therefore, used for this purpose in association with them. The anti-ulcerogenic activity of the compounds of the invention is shown, e.g., by the fact that they are active in the test of the inhibition of restraint ulcers in rats, according to the method of Bonfils et al., (Therapie, 1960, 5, 1096; Jap. J. Pharmac. 1945, 43, 5). Six Sprague-Dawley male rats (100-120 g) fasted 24 hours were used for the experiment: a square flexible small-mesh wire netting was used for the immobilization and 4 hours after the immobilization the rats were sacrificed, their stomachs were removed and the lesions counted under a dissecting microscope. The tested compounds were administered per os (p.o.) one hour before the immobilization.

[4] = test system: Reversed Passive Arthus Reaction (RPAR); experiment: Reversed Passive Arthus Reaction (RPAR) in rat paw; format: in vivo; settings: approximate ED25, oral administration, read-out: Anti-inflammatory activity RPAR reaction ED25
Text: as §1
(§2) Therefore the compounds of the invention may be used in therapy to treat pains and inflammatory processes, such as for example, rheumatoid arthritis and osteoarthrosis. The following Tables II and III show, for example, the approximate ED25 values of the anti-inflammatory activity in the above tests in the rat after oral administration for some compounds of this invention: […]

[5] = test system: carrageenin induced oedema; experiment: carrageenin induced oedema in the hind paw of rats; format: in vivo; settings: approximate ED25; rat, oral administration; read-out: Anti-inflammatory activity Carrageenin induced oedema ED25
Text: as §1, §2

[6] = test system: gastric secretion in rats; experiment: gastric antisecretory activity, pylorus ligature technique (Shay method); format: in vivo; settings: approximate ED50; rat, intraduodenal administration at the time of ligature, 4 hours
Description: Gastric antisecretory activity was evaluated in rats by the pylorus ligature technique. Six Sprague-Dawley male rats (110-130 g) were used for each group. Twenty-four hours before the test, the rats were deprived of food but their water supply was maintained. On the day of the operation, the pylorus was ligated under light ether anaesthesia. Each compound was injected intraduodenally (i.d.) at the time of the ligature. Four hours after the ligature the rats were sacrificed, the stomach secretion was collected and centrifuged at 3500 r.p.m. for 10 minutes, and the volume, less sediment, was determined.
The amount of the free hydrochloric acid in the gastric juice was determined by titration against 0.01 N sodium hydroxide to pH 7.0.

[7] = molecular target: T1, TXA2 synthetase (Rattus norvegicus, UniProt P49430); experiment: TXA2 synthetase inhibition in vivo, TXB2 concentration in serum; settings: single oral dose of 10 mg/kg, TXB2 in serum two hours after administration
T1 construct: determining the concentration of TXB2 in the serum of the animals killed two hours after the administration of the drug; from tissue; host or cells: living rat, serum sampled after oral dosing (endogenous enzyme)
T1 sequence (P49430 1-533): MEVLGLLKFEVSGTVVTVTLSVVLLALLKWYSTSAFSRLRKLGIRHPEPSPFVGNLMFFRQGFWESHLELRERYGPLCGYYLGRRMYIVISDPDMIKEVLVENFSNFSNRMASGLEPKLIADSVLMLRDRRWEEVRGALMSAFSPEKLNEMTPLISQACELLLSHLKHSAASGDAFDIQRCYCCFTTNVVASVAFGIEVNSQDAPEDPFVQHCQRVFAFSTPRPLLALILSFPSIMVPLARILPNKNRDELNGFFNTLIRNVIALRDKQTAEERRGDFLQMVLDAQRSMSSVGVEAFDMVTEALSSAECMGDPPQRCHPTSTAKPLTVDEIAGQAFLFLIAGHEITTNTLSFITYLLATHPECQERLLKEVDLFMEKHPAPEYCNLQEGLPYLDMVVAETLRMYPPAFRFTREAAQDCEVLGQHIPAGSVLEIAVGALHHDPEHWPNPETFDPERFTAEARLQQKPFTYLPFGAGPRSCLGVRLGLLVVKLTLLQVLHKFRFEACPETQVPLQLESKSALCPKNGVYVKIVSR
Description: The activity on the TXA2 synthetase was evaluated, e.g., in rat by administering the compounds at a single oral dose of 10 mg/kg and determining the concentration of TXB2 in the serum of the animals killed two hours after the administration of the drug.

O=c1cc(/C=C/c2cccnc2)nc2sc(Cl)cn12 [2-chloro-7-trans-[2-(3-pyridyl)-ethenyl]-5H-thiazolo[3,2-a]pyrimidine-5-one] showed an LD50 at 168 h [1] of over 800 mg/kg, an ED25 [2] of about 25 mg/kg and an ED50 [3] of 10 mg/kg. It also gave an ED25 [4] of 25 mg/kg and an ED25 [5] of 16 mg/kg.

Molecule COc1c(/C=C/c2cccnc2)nc2sccn2c1=O [6-methoxy-7-trans-[2-(3-pyridyl)-ethenyl]-5H-thiazolo[3,2-a]pyrimidine-5-one] has an ED50 [6] of about 30 mg/kg and an ED25 [5] of 15 mg/kg.

For Cc1c(/C=C/c2cccnc2)nc2sccn2c1=O [6-methyl-7-trans-[2-(3-pyridyl)-ethenyl]-5H-thiazolo[3,2-a]pyrimidine-5-one], the “TXA2 synthetase inhibiting activity” value [7] was “having TXA2 synthetase inhibiting activity”.

O=c1cc(/C=C/c2cccnc2)nc2sccn12 [7-trans-[2-(3-pyridyl)-ethenyl]-5H-thiazolo[3,2-a]pyrimidine-5-one] gave an LD50 at 168 h [1] of over 800 mg/kg, an ED50 [3] of 9 mg/kg and an ED25 [5] of 6 mg/kg.
